From the NIST ThermoML archive (doi:10.1021/je700140j)

Assay: xn = mol fraction of the nth substance listed
Conditions: for surface tension liquid-gas: Ring tensiometer; for mass density / viscosity: 100.8 kPa, Liquid

OCCc1ccccc1 [2-phenylethanol] + OCc1ccccc1
Conditions | mass density, 298.15 K [kg/m3] | mass density, 308.15 K [kg/m3] | mass density, 318.15 K [kg/m3] | surface tension liquid-gas, 298.15 K [mN/m] | surface tension liquid-gas, 308.15 K [mN/m] | surface tension liquid-gas, 318.15 K [mN/m] | viscosity, 298.15 K [mPa·s] | viscosity, 308.15 K [mPa·s] | viscosity, 318.15 K [mPa·s]
x2 = 0 | 1016.2 | 1008.63 | 1000.98 | 39.43 | 38.93 | 38.35 | 11.4 | 7.518 | 5.232
x2 = 0.05 | 1018.11 | 1010.83 | 1003.42 | – | – | – | 11.07 | 7.322 | 5.116
x2 = 0.1 | 1020.14 | 1013.11 | 1005.98 | 39.2 | 38.7 | 38.11 | 10.73 | 7.132 | 5
x2 = 0.15 | 1022.33 | 1015.32 | 1008.23 | – | – | – | 10.41 | 6.94 | 4.883
x2 = 0.2 | 1024.45 | 1017.42 | 1010.36 | 39 | 38.48 | 37.86 | 10.08 | 6.752 | 4.77
x2 = 0.25 | 1026.56 | 1019.52 | 1012.41 | – | – | – | 9.759 | 6.564 | 4.655
x2 = 0.3 | 1028.52 | 1021.44 | 1014.25 | 38.83 | 38.28 | 37.63 | 9.44 | 6.372 | 4.542
x2 = 0.35 | 1030.34 | 1023.25 | 1015.99 | – | – | – | 9.125 | 6.186 | 4.43
x2 = 0.4 | 1032.11 | 1024.95 | 1017.65 | 38.7 | 38.1 | 37.41 | 8.816 | 5.999 | 4.32
x2 = 0.45 | 1033.8 | 1026.61 | 1019.28 | – | – | – | 8.506 | 5.815 | 4.21
x2 = 0.5 | 1035.25 | 1028.06 | 1020.74 | 38.6 | 37.95 | 37.21 | 8.203 | 5.636 | 4.101
x2 = 0.55 | 1036.33 | 1029.16 | 1021.87 | – | – | – | 7.913 | 5.467 | 3.997
x2 = 0.6 | 1037.32 | 1030.12 | 1022.84 | 38.6 | 37.9 | 37.12 | 7.628 | 5.302 | 3.897
x2 = 0.65 | 1038.01 | 1030.89 | 1023.63 | – | – | – | 7.351 | 5.14 | 3.797
x2 = 0.7 | 1038.62 | 1031.56 | 1024.26 | 38.6 | 37.85 | 37.02 | 7.081 | 4.979 | 3.697
x2 = 0.75 | 1039.06 | 1031.9 | 1024.63 | – | – | – | 6.813 | 4.821 | 3.599
x2 = 0.8 | 1039.43 | 1032.23 | 1024.86 | 38.6 | 37.8 | 36.92 | 6.554 | 4.666 | 3.5
x2 = 0.85 | 1039.72 | 1032.44 | 1024.99 | – | – | – | 6.296 | 4.519 | 3.402
x2 = 0.9 | 1040 | 1032.65 | 1025.18 | 38.6 | 37.76 | 36.84 | 6.036 | 4.374 | 3.306
x2 = 0.95 | 1040.59 | 1033.06 | 1025.43 | – | – | – | 5.787 | 4.232 | 3.213
